# Target: Albumin (Homo sapiens, UniProt P02768)
# Test: Binding affinity towards human serum albumin
# Chain of Albumin (P02768 whole entry): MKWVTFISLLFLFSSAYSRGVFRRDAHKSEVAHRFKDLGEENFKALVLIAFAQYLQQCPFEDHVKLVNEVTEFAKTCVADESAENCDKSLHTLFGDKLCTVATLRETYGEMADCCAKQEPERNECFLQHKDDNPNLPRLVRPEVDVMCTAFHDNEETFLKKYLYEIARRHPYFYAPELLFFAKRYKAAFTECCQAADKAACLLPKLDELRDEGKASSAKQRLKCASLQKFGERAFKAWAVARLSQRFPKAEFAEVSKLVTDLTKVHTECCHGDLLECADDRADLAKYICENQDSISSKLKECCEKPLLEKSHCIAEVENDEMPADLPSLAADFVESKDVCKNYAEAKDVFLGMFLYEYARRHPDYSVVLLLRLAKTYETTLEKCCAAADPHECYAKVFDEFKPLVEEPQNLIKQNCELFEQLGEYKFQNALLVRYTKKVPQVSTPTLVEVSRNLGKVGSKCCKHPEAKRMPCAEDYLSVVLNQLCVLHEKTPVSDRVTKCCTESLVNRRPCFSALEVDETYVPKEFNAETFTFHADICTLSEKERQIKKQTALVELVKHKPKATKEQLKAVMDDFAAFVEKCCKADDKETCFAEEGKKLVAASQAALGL
Association constant (Ka) [M⁻¹],Ki [M⁻¹],Structure (SMILES)
109000,,Cc1cc(CC(=O)O)n(C)c1C(=O)c1ccc(Cl)cc1
,15100,CS(=O)(=O)Nc1ccc([N+](=O)[O-])cc1Oc1ccccc1
251000,,O=C(O)c1cccc(-c2ccccc2)c1
2750,,Nc1cccc(-c2ccc(O)c(C(=O)O)c2)c1
39800,,CC(C)Cc1ccc([C@@H](C)C(=O)N[C@H](C)C(=O)O)cc1
1000,,NCc1ccc(-c2ccc(C(=O)O)cc2)cc1
5010,,CC(C)Cc1ccc([C@@H](C)C(=O)NCCCN(C)C)cc1
2690,,C[C@@H](C(=O)NCCCN1CCCC1)c1ccc(OS(=O)(=O)C(F)(F)F)cc1
23900,,O=C(O)c1cccc(-c2ccc(Cl)cc2Cl)c1
7760,,Nc1cccc(-c2cccc(C(=O)O)c2)c1
3890,,C[C@@H](C(=O)NCCN1CCCC1)c1ccc(OS(=O)(=O)C(F)(F)F)cc1
8120,,CC(C)Cc1ccc([C@@H](C)C(=O)NCCOCCO)cc1
20400,,CC(C)(C)c1ccc(O)c(C(=O)O)c1
3890,,CC(Cc1ccc([C@@H](C)C(=O)NS(C)(=O)=O)cc1)C(=O)O (stereo not given in full)
81200,,COc1ccc2c(c1)CN(c1ccc(C(C)C(=O)O)cc1)C2=O (stereo not given)
1000,,NCc1cc(-c2ccc(C(=O)O)cc2)ccc1F
3090,,O=C(O)c1cccc(-c2cc(C(F)(F)F)cc(C(F)(F)F)c2)c1

Association constant (Ka) [M⁻¹],Ki [M⁻¹],Structure (SMILES)
5750,,O=C(O)c1cccc(-c2cc(Cl)cc(Cl)c2)c1
19000,,C[C@@H](C(N)=O)c1ccc(OS(=O)(=O)C(F)(F)F)cc1
6160,,Nc1ccc(-c2cccc(C(=O)O)c2)cc1
26300,,CC(C)c1ccc(O)c(C(=O)O)c1
331000,,"CC(C(=O)O)c1ccc(-c2ccccc2)c(F)c1 (racemic) [2-(2-fluoro-[1,1'-biphenyl-4-yl])propanoic acid]"
354,,"CC(C)NCC(O)c1ccc(NS(C)(=O)=O)cc1 (racemic) [Sotalol,(-)]"
39800,,CCCNC(=O)NS(=O)(=O)c1ccc(Cl)cc1 [1-(4-chlorophenylsulfonyl)-3-propylurea]
416000,,Cc1ccc(C(=O)c2ccc(CC(=O)O)n2C)cc1 [2-(1-methyl-5-(4-methylbenzoyl)-1H-pyrrol-2-yl)acetic acid]
100000,,O=C(O)c1cc(-c2ccccc2)ccc1O [2-Hydroxy-5-phenylbenzoic acid]
21300,,O=C(O)c1cc(Cl)ccc1O [5-Chloro-2-hydroxy-benzoic acid]
1.65e+06,,CC(C)Cc1ccc([C@@H](C)C(=O)NS(C)(=O)=O)cc1 [(R)-2-(4-isobutylphenyl)-N-(methylsulfonyl)propanamide]
199000,,O=C(O)c1ccc(-c2ccccc2)cc1 [Biphenyl-4-carboxylic acid]
53700,,Cc1ccc(S(=O)(=O)NC(=O)NN2CCCCCC2)cc1 [CHEBI:9613]
831000,,C[C@@H](C(=O)NS(C)(=O)=O)c1ccc(OS(=O)(=O)C(F)(F)F)cc1 [DF-2156A]
2290,,NS(=O)(=O)c1cc2c(cc1Cl)NCNS2(=O)=O [JFD00715]
26300,,CC1=C(CC(=O)O)c2cc(F)ccc2/C1=C\c1ccc([S+](C)[O-])cc1 (stereo not given) [Sulindac]
208000,,O=C(c1ccccc1)c1ccc2n1CCC2C(=O)O (stereo not given) [Toradol]

Structure (SMILES),Association constant (Ka) [M⁻¹],Ki [M⁻¹]
Oc1ccc(-c2ccccc2)cc1 [4-Hydroxybiphenyl],9540,

# Reference: BindingDB's records for doi:10.1021/jm049227l (Molecular Discovery, 2005)
